Test results as given in PMC6222853 (Molecules : A Journal of Synthetic Chemistry and Natural …, 2018).

Assays:
[1] = system: LPS-stimulated RAW 264.7 cells; assay: Nitrite inhibition assay in LPS-stimulated cells; format: cell-based; details: Mus musculus; for IC50: RAW264.7, 24 h, read-out: Nitrite Inhibition (IC50 Value)
Method: As an indicator of NO synthesis, nitrite amount was measured in the supernatant of LPS-stimulated RAW 264.7 cells. Cells were plated on a 24-well plate with a density of 2 × 10^5 cells/well. After seeding, cells were treated with LPS (500 ng/mL final concentration) and varying concentrations of the test compounds for 24 h. Ketorolac (200 μM) was used as a standard drug. Then, 100 μL of culture supernatant from each well was mixed with an equal volume of Griess reagent, and incubated at room temperature for 10 min. The formation of an azo compound was measured spectrophotometrically at 550 nm wavelength. Finally, nitrite concentration was determined from a standard curve of sodium nitrite, and nitrite inhibition percentages of test compounds and the reference drug were calculated based on the amount of nitrite produced by the control cells (treated only with LPS).

egg albumin = target: T1, egg albumin (Gallus gallus, UniProt P01012); assay: Albumin denaturation inhibition assay; design: species or system chicken; details: for IC50: egg albumin, heated at 70 °C, in vitro
T1 sequence (P01012 1-386): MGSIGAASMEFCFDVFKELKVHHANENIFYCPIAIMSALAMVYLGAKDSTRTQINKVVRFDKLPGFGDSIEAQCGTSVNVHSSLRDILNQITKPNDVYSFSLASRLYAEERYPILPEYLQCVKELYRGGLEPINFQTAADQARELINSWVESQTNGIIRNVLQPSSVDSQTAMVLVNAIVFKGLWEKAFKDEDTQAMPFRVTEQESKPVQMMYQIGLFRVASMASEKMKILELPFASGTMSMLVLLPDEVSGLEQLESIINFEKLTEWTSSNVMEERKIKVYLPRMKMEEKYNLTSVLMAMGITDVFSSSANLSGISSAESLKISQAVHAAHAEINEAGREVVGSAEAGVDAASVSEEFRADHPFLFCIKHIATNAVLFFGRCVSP
Method: Albumin denaturation inhibition effects of the compounds were confirmed through a previously described method. Egg albumin was used in this experiment, and the reaction mixture contained 0.1 mL of egg albumin, 0.7 mL of phosphate-buffered saline (PBS), and varying concentrations of different compounds (0.5 mL). Mili-Q water (0.5 mL) instead of the compounds was used in the negative control. The reaction mixtures were incubated at 37 °C for 15 min and heated at 70 °C for 5 min. The absorbance was measured at 660 nm after cooling at room temperature. Ketorolac was used as a standard drug. Percentage of albumin denaturation inhibition was calculated according to the following formula:Percentage of inhibition = (1 − (A/B)) × 100, where A is the absorbance of the test sample, and B is the absorbance of the negative control.

yeast α-glucosidase = target: T2, yeast α-glucosidase (Saccharomyces cerevisiae, UniProt P53341); assay: α-Glucosidase inhibition assay; format: biochemical
T2 construct: purchased Sigma-Aldrich (Saint Louis, MO, USA)
Method: The α-glucosidase assay was performed with slight modifications of a previous method. In short, 15 µL of the test sample at various concentrations was added to 140 µL of enzyme solution (0.0073 U/mL of α-glucosidase in 0.05 M sodium phosphate buffer containing 100 mM NaCl) in a 96-well plate. Reaction mixtures were incubated at 37 °C for 15 min. Then, 25 µL of 0.7 mM p-nitrophenyl-α-D-glucopyranoside (PNPG) solution in 0.05 M sodium phosphate buffer (pH 6.8) was added to each well.

electric eel AChE = target: T3, electric eel AChE (Electrophorus electricus, UniProt O42275); assay: biochemical; details: in vitro, electric eel enzyme; read-out: AChE inhibition IC50
T3 construct: purchased Sigma-Aldrich (Saint Louis, MO, USA)
Method: The AChE inhibitory properties of the compounds were determined using a 96-well microplate colorimetric method as described by Ellman et al.. Donepezil was used as a positive control.

COX-2 = target: T4, COX-2 (Mus musculus, UniProt Q05769); assay: Cell-based assay for COX-2 inhibition (PGE2 ELISA); details: LPS-induced RAW 264.7 cells, conversion of arachidonic acid to PGE2
T4 construct: treated with 500 ng/mL LPS for the next 24 h to induce the production of COX-2; endogenous in cells; host or cells: RAW 264.7 cells, LPS-induced
T4 sequence (Q05769 18-604): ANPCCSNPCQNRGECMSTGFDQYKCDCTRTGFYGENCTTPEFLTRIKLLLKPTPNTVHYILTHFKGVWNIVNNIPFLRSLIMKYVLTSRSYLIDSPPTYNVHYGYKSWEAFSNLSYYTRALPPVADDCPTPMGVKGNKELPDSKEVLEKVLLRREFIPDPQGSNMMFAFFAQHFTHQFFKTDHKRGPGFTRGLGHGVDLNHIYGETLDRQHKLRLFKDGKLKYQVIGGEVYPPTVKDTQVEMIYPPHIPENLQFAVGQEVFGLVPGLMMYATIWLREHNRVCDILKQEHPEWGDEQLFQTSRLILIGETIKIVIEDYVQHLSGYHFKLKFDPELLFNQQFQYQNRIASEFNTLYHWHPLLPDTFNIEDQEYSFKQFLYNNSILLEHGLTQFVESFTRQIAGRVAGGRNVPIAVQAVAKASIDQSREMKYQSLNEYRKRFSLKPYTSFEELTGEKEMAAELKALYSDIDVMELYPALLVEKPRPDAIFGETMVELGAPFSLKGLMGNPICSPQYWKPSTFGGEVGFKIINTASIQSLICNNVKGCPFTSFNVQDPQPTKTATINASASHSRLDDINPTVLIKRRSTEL
Method: This assay was carried out according to the method described by Stanikunaite et al. with some modifications. In brief, RAW 264.7 cells (2 × 10^5 cells/well) were cultured in a 24-well plate in DMEM supplemented with 10% FBS and incubated at 37 °C for 24 h for seeding. After seeding, cells were washed with PBS (400 µL) and treated with 500 ng/mL LPS for the next 24 h to induce the production of COX-2. Then, the induced cells were washed thoroughly with PBS to remove LPS completely and treated with different concentrations of test compounds for 4 h. Arachidonic acid (300 µM) was added and the cells were further incubated for 30 min. Next, the PGE2 levels were determined in the culture supernatant using a PGE2 ELISA kit (Cayman Chemical Co., Ann Arbor, MI, USA) according to the manufacturer’s instructions. COX-2 enzyme activity was determined by the conversion of exogenous arachidonic acid to PGE2, and was expressed as the percentage of negative control (without test compounds). Finally, IC50 values were calculated for all the tested compounds. Indomethacin was used as a positive control.

RAW 264.7 cells = assay: cells; format: cell-based; details: Mus musculus, RAW264.7, 24 h, read-out: Inhibition of cell proliferation, deviation from the control group
Method: RAW 264.7 cell viability was evaluated through the MTT assay. Cells were seeded in a 24-well plate at a density of 2 × 10^5 cells/well and incubated with the OP compounds for 24 h. Ketroloac (200 μM) was also assessed to determine its cytotoxicity on RAW 264.7 cells. After incubation, the supernatant was removed, and the cells were washed with PBS. Aliquots of 100 μL of MTT solution (0.5 mg/mL in PBS) were added to each well, and the plate was incubated at 37 °C for 3 h. Afterwards, dimethyl sulfoxide (400 μL) was added to each well, and the plate was shaken for 10 min at room temperature to dissolve the formazan crystals. The absorbance was measured at 570 nm wavelength using a microplate reader, and the cell viability was calculated from the absorbance of the treated versus untreated control cells.

T2 sequence (P53341 whole entry): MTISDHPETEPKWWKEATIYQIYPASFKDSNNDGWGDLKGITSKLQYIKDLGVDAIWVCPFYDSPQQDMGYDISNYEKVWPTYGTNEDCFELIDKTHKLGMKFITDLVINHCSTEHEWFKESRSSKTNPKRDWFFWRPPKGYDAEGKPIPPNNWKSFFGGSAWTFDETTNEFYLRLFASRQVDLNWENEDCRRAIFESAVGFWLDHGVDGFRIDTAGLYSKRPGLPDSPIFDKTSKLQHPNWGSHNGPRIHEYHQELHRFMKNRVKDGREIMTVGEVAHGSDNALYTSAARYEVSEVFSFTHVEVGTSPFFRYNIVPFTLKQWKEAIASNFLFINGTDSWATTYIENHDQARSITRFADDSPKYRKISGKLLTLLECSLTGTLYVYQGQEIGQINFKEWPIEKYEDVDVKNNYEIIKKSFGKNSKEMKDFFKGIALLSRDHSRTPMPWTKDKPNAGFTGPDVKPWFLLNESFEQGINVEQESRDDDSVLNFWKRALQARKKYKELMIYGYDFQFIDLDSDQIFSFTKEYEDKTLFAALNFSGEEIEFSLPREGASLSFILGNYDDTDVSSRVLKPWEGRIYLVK
T3 sequence (O42275 24-633): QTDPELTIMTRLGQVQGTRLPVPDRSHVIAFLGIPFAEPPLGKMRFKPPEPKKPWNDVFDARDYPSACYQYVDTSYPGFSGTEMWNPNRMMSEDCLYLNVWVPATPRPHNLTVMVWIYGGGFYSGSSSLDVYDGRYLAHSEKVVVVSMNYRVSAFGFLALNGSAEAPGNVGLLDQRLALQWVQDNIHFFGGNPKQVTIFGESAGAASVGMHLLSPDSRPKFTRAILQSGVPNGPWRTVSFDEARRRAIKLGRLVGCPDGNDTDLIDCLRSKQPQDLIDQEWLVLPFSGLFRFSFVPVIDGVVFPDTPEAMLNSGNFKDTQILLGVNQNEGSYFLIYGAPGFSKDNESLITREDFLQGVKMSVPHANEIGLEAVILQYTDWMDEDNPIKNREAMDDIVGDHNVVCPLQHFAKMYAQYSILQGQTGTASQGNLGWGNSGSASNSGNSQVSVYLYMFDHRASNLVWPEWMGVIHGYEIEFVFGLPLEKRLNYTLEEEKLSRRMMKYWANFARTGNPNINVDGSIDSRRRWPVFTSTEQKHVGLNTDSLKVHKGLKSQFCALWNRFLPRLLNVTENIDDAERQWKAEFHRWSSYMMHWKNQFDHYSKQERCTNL

Compound | IC50 [1] | IC50 (egg albumin) | IC50 (yeast α-glucosidase) | IC50 (electric eel AChE) | IC50 (COX-2) | inhibition at 12 µM (RAW 264.7 cells) | inhibition at 200 µM ([1]; RAW264.7, 200 μM, compared to cells treated only with LPS, read-out: Inhibition of nitrite formation in the supernatant) | inhibition at 200 µM (egg albumin; at 200 µM)
CC(C)=CCC/C(C)=C/Cc1cc([C@@H]2CC(=O)c3c(O)cc(O)cc3O2)ccc1O [GN, 3′-geranyl-naringenin] | 7 µM | 1.02 µM | 5.4 µM | 12.3 µM | 24 µM |  |  | 
CC(C)=CCC/C(C)=C/Cc1cc(C2CC(=O)c3c(O)cc(O)cc3O2)cc(O)c1O (centres unmarked) [INB, isonymphaeol-B] | 6.2 µM | 0.42 µM | 5.12 µM | 7.23 µM | 23.8 µM | 3 to 5% |  | 
CC(C)=CCC/C(C)=C/Cc1c(O)cc2c(c1O)C(=O)C[C@@H](c1ccc(O)c(O)c1)O2 [NA, nymphaeol-A] | 3.2 µM | 0.26 µM | 3.77 µM | 7.77 µM | 11.7 µM |  |  | 
CC(C)=CCC/C(C)=C/Cc1c([C@@H]2CC(=O)c3c(O)cc(O)cc3O2)ccc(O)c1O [NB, nymphaeol-B] | 5.4 µM | 0.54 µM | 5.66 µM | 15.1 µM | 17.9 µM | 3 to 5% |  | 
CC(C)=CCC/C(C)=C/Cc1c([C@@H]2CC(=O)c3c(cc(O)c(CC=C(C)C)c3O)O2)ccc(O)c1O [NC, nymphaeol-C] | 2.4 µM | 0.37 µM | 4.09 µM | 15.7 µM | 15.4 µM |  |  | 
O=C(c1ccccc1)c1ccc2n1CCC2C(=O)O (centres unmarked) [ketorolac, reference compound] |  |  |  |  |  |  | 26% | 52%
